Literature values in patent publication US20190336443A1 (Navinta III Inc, priority 2018, published 2019).

What was measured:
[1] = all animal species with adequate studies (rodents and rabbits)
[2] = pH sensitive

SMILES: NC(=O)c1ncn([C@@H]2O[C@H](CO)[C@@H](O)[C@H]2O)n1 [Ribavirin, 1-beta-D-ribofuranosyl-1H-1,2,4-triazole-3-carboxamide]
- teratogenic and/or embryocidal potential [1]: significant teratogenic and/or embryocidal potential
- degradation in a liquid formulation [2]: readily degraded by hydrolysis
- solubility in ethanol: slight solubility
